Biological target: glutamate carboxypeptidase II (GCPII) (Homo sapiens, UniProt Q04609)
Type: biochemical

Sequence of glutamate carboxypeptidase II (GCPII) (Q04609 whole entry): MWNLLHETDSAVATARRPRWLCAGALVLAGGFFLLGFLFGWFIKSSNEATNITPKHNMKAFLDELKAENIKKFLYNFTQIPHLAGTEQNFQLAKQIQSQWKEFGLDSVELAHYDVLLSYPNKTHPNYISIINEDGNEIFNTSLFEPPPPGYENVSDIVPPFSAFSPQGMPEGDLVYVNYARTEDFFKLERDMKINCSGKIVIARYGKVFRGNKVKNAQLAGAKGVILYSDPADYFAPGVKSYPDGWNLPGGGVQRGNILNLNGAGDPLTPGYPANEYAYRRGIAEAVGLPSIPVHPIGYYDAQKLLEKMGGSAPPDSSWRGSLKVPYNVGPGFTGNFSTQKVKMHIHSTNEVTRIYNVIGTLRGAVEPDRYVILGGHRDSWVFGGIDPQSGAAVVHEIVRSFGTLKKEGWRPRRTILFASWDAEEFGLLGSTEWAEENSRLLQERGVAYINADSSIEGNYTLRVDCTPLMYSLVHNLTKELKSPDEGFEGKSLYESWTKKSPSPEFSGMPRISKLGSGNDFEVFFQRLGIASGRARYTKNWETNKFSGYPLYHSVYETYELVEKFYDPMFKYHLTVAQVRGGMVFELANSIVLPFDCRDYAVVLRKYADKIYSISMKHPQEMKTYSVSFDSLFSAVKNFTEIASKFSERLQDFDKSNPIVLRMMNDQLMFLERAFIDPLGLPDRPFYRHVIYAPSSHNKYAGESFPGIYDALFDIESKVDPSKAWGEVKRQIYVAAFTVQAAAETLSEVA

SMILES: CCC[C@H](NC(=O)N[C@@H](CCC(=O)O)C(=O)O)C(=O)O [ZJ44, N-[[[(1S)-1-Carboxy-3-methylpropyl]amino]carbonyl]-L-glutamic acid]
- Ki: 39.4 ± 2.9 nM
